For the test, the target named is T1, Blon_0248 (Bifidobacterium longum, UniProt A0ACD7UNL5).
T1 sequence (A0ACD7UNL5 1-449): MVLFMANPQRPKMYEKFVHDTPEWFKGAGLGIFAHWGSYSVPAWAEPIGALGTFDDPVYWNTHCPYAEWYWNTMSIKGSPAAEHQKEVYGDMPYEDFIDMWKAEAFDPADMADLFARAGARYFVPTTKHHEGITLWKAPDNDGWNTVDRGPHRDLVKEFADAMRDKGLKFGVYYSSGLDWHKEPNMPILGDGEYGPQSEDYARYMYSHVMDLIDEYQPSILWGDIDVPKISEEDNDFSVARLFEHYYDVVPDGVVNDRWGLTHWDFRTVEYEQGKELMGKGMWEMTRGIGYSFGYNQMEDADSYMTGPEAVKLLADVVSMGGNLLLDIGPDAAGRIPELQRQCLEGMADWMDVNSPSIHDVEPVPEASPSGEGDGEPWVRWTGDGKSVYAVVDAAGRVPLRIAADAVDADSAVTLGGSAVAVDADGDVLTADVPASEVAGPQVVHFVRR
As to the kind of experiment: pNP release, absorbance […] nm. Format: biochemical. The settings on record: 50 mM sodium acetate pH 6.0, 37 °C.

`C[C@@H]1O[C@@H](Oc2ccc([N+](=O)[O-])cc2)[C@@H](O)[C@H](O)[C@@H]1O` [pNP-α-Fuc]: the “pNP release, absorbance 405 nm” value is “Both proteins specifically hydrolyzed pNP-α-Fuc, but not any of the other pNP-glycosides tested”.
